# According to patent publication US20250154173A1 (Merck Sharp & Dohme LLC, priority 2023, published 2025):
# Biological target: T1, GST-RIPK1 (recombinant GST-RIPK1 kinase domain (residues 1-327)) (Homo sapiens, UniProt Q13546)
# T1 construct: recombinant GST-RIPK1 kinase domain (residues 1-327) enzyme produced from baculovirus-transfected Sf21 cells; host or cells: baculovirus-transfected Sf21 insect cells
# T1 sequence (Q13546 1-327): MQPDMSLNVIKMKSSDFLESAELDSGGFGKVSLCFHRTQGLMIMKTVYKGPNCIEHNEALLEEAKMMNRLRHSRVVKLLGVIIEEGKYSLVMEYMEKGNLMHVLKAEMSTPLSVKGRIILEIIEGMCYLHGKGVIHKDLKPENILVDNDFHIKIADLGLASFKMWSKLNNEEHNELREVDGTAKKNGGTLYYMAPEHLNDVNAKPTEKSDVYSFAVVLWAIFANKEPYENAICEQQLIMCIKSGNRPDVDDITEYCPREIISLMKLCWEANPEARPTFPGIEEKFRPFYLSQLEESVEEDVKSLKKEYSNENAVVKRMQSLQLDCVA
# Assay: RIPK1-ADP-Glo Enzymatic Assay
# Format: biochemical
# Details: ten-point titration, top compound concentration of 100000 nM; 25 nM GST-RIPK1, 300 μM ATP, 3 μM dephosphorylated-MBP; 30 min pre-incubation, 150 min reaction
# Protocol: RIPK1-ADP-Glo Enzymatic Assay
# The enzymatic activity of RIPK1 is measured using an assay derived from ADP-Glo kit (TMPromega), which provides a luminescent-based ADP detection system. Specifically, the ADP generated by RIPK1 kinase is proportionally detected as luminescent signals in a homogenous fashion. In this context, the assessment of the inhibitory effect of small molecules (EC50) is measured by the effectiveness of the compounds to inhibit the ATP to ADP conversion by RIPK1.
# In this assay, the potency (EC50) of each compound was determined from a ten-point (1:3 serial dilution; top compound concentration of 100000 nM) titration curve using the following outlined procedure. To each well of a white ProxiPlus 384 well-plate, 30 nL of compound (1% DMSO in final assay volume of 3 μL) was dispensed, followed by the addition of 2 μL of 1× assay buffer (25 mM Hepes 7.3, 20 mM MgCl2, 50 mM NaCl, 1 mM DTT, 0.005% Tween20, and 0.02% BSA) containing 37.5 nM of GST-RIPK1 (recombinant GST-RIPK1 kinase domain (residues 1-327) enzyme produced from baculovirus-transfected Sf21 cells: MW=62 kDa). Plates were placed in an ambient temperature humidified chamber for a 30 minutes pre-incubation with compound. Subsequently, each reaction was initiated by the addition of 1 μL 1× assay buffer containing 900 μM ATP and 3 μM dephosphorylated-MBP substrate. The final reaction in each well of 3 μL consists of 25 nM of GST-RIPK1, 300 μM ATP, and 3 μM dephosphorylated-MBP. Kinase reactions were allowed to proceed for 150 minutes prior to adding ADP-Glo reagents per Promega's outlined kit protocol. Dose-response curves were generated by plotting percent effect (% product conversion; Y-axis) vs. Log 10 compound concentrations (X-axis). EC50 values were calculated using a non-linear regression, four-parameters sigmoidal dose-response model.
row,Structure (SMILES),EC50
1,"N#CCc1cccc(COC2CC3(C2)OC2CC[C@@H](c4cnccn4)N2C3=O)c1 (stereo partly drawn) [Example 18.10, [3-({[(5′S)-3′-oxo-5′-(pyrazin-2-yl)tetrahydro-3′H-spiro[cyclobutane-1,2′-pyrrolo[2,1-b][1,3]oxazol]-3-yl]oxy}methyl)phenyl]acetonitrile]",12 nM
2,"O=C1N2[C@@H](CC[C@H]2c2cc(F)cc(F)c2)OC12CC(Oc1ccc(F)cn1)C2 (single isomer, unassigned) [Example 9.35]",64 nM
3,"Cn1ccc([C@@H]2CC[C@H]3OC4(CC(Oc5cncc(Cl)c5)C4)C(=O)N32)n1 (stereo partly drawn) [Example 20.9, (5′S,7a′R)-3-[(5-chloropyridin-3-yl)oxy]-5′-(1-methyl-1H-pyrazol-3-yl)tetrahydro-3′H-spiro[cyclobutane-1,2′-pyrrolo[2,1-b][1,3]oxazol]-3′-one]",83 nM
4,"O=C1N2[C@@H](CC[C@H]2c2cnccn2)OC12CC(Oc1cncc(Cl)c1)C2 (stereo partly drawn) [Example 19.18, (5′S,7a′R)-3-[(5-chloropyridin-3-yl)oxy]-5′-(pyrazin-2-yl)tetrahydro-3′H-spiro[cyclobutane-1,2′-pyrrolo[2,1-b][1,3]oxazol]-3′-one]",23 nM
5,"O=C1N2[C@@H](CC[C@H]2c2cnccn2)OC12CC(Oc1cc(F)ccc1F)C2 (stereo partly drawn) [Example 12.6, (5′S,7a′R)-3-(2,5-difluorophenoxy)-5′-(pyrazin-2-yl)tetrahydro-3′H-spiro[cyclobutane-1,2′-pyrrolo[2,1-b][1,3]oxazol]-3′-one]",16 nM
6,O=C1N2C(CC[C@H]2c2cnccn2)OC12CC(OCc1ccc3nc(C(F)(F)F)cn3c1)C2 (stereo partly shown) [Example 18.103],607 nM
7,"O=C1N2[C@@H](CC[C@H]2c2ccccc2)OC12CCC(OCc1ccccc1)CC2 (single isomer, unassigned) [Example 1.1, ((1r or s),4R,5′S,7a′R)-4-(benzyloxy)-5′-phenyltetrahydro-3′H-spiro[cyclohexane-1,2′-pyrrolo[2,1-b]oxazol]-3′-one]",256 nM
8,"O=C1N2[C@@H](CC[C@H]2c2cnccn2)O[C@]12C[C@@H](OCc1ccccc1Cl)C2 [Example 22.1, (1S,3S,5′S,7a′R)-3-((2-chlorobenzyl)oxy)-5′-(pyrazin-2-yl)tetrahydro-3′H-spiro[cyclobutane-1,2′-pyrrolo[2,1-b]oxazol]-3′-one]",18 nM
9,"O=C1N2[C@@H](CC[C@H]2c2ncccc2F)OC12CC(Oc1ncnn3cccc13)C2 (stereo partly drawn) [Example 9.62, (5′S,7a′R)-5′-(3-fluoropyridin-2-yl)-3-[(pyrrolo[2,1-f][1,2,4]triazin-4-yl)oxy]tetrahydro-3′H-spiro[cyclobutane-1,2′-pyrrolo[2,1-b][1,3]oxazol]-3′-one]",10.2 nM
10,"Cc1ccc(OC2CC3(C2)O[C@@H]2CC[C@@H](c4ccn(C)n4)N2C3=O)cn1 (stereo partly drawn) [Example 19.12, (5′S,7a′R)-5′-(1-methyl-1H-pyrazol-3-yl)-3-[(6-methylpyridin-3-yl)oxy]tetrahydro-3′H-spiro[cyclobutane-1,2′-pyrrolo[2,1-b][1,3]oxazol]-3′-one]",790 nM
11,N#Cc1ccc(OC2CC3(C2)O[C@@H]2CC[C@@H](c4ccccc4)N2C3=O)cc1 (stereo partly shown) [Example 8.9],72 nM
12,"COc1ccc(COC2CC3(C2)OC2CC[C@@H](c4cnccn4)N2C3=O)cc1CC#N (stereo partly drawn) [Example 18.38, [2-methoxy-5-({[(5′S)-3′-oxo-5′-(pyrazin-2-yl)tetrahydro-3′H-spiro[cyclobutane-1,2′-pyrrolo[2,1-b][1,3]oxazol]-3-yl]oxy}methyl)phenyl]acetonitrile]",12 nM
13,"COc1ccc2cc(COC3CC4(C3)OC3CC[C@@H](c5cnccn5)N3C4=O)cc(C)c2n1 (stereo partly drawn) [Example 18.41, (5′S)-3-[(2-methoxy-8-methylquinolin-6-yl)methoxy]-5′-(pyrazin-2-yl)tetrahydro-3′H-spiro[cyclobutane-1,2′-pyrrolo[2,1-b][1,3]oxazol]-3′-one]",53 nM
